Measurements: paper PMC7725692 (Frontiers in Molecular Neuroscience, 2020)

Tests used:
[1] = target: T1, Ace-ACR-16 (Ancylostoma ceylanicum, UniProt A0A7M1S071); experiment: cell-based; conditions: read-out: % inhibition at 500 μM
T1 sequence (A0A7M1S071 22-498): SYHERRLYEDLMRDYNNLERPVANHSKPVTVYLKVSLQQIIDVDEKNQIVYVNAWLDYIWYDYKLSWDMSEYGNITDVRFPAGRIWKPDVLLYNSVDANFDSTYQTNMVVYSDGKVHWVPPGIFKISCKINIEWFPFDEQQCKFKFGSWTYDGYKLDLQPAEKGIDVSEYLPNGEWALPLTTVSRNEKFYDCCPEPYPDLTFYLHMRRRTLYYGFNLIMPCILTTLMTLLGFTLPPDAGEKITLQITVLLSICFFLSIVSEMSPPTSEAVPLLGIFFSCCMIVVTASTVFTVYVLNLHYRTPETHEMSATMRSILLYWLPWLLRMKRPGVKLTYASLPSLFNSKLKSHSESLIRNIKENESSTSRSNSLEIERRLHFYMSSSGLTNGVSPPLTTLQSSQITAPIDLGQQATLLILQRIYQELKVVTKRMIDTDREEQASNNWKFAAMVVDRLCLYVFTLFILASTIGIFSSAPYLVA

[2] = target: T2, Nam-ACR-16 (Necator americanus, UniProt A0A7M1S0Z8); experiment: cell-based; conditions: read-out: % inhibition at 500 μM
T2 sequence (A0A7M1S0Z8 22-498): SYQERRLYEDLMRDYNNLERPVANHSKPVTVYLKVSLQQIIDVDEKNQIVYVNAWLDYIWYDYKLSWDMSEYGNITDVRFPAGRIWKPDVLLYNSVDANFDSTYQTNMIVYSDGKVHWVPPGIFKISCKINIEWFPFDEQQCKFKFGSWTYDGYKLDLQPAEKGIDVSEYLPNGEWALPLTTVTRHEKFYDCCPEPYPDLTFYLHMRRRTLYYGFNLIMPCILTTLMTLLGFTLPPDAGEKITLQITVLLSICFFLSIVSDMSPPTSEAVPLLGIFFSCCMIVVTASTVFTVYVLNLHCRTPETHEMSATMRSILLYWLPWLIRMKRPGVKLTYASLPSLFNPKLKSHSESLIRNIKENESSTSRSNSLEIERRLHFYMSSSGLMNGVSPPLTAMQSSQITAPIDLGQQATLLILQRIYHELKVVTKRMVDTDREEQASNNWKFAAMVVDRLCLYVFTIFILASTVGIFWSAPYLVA

[3] = target: T2, Nam-ACR-16; experiment: two-electrode voltage clamp in Xenopus oocytes, agonist concentration-response; type: cell-based; design: full-length homopentameric receptor, co-expressed with Hco-RIC-3 in Xenopus laevis oocytes
[4] = target: T2, Nam-ACR-16; experiment: two-electrode voltage clamp in Xenopus oocytes, agonist concentration-response (weak partial agonist); type: cell-based; design: full-length homopentameric receptor, co-expressed with Hco-RIC-3 in Xenopus laevis oocytes
[5] = target: T1, Ace-ACR-16; experiment: two-electrode voltage clamp in Xenopus oocytes, agonist concentration-response (full agonist); type: cell-based; design: full-length homopentameric receptor, co-expressed with Hco-RIC-3 in Xenopus laevis oocytes
[6] = target: T1, Ace-ACR-16; experiment: cell-based; design: full-length homopentameric receptor, co-expressed with Hco-RIC-3 in Xenopus laevis oocytes; conditions: read-out: % maximal acetylcholine response

c1ccc([C@H]2CN3CCSC3=N2)cc1 [levamisole]
inhibition at 500 µM [1]: 65.1 ± 14.3%
inhibition at 500 µM [2]: 79.5 ± 7.7%

CC(=O)OCC[N+](C)(C)C [acetylcholine]
EC50 [3]: 170 ± 19.2 µM

CN1CCC[C@H]1c1cccnc1 [nicotine]
EC50 [4]: 598 ± 59.1 µM
EC50 [5]: 24.4 ± 2.89 µM

CN1CCCN=C1/C=C/c1cccs1 [pyrantel]
Emax [6]: 12.5 ± 7.5%

CN1CCCN=C1/C=C/c1cccc(O)c1 [oxantel]
Emax [6]: 15.6 ± 9.6%
